Reference: patent US6200989A, “2-alkylidene hydroxycumaranone derivatives” (Hoffmann-La Roche Inc., priority 1997, dated 2001)

Target: uPAR (Homo sapiens, UniProt Q03405)
Experiment: ELISA test: inhibition of human urokinase (uPA) binding to its specific receptor uPAR
Details: test substance preincubated 30 min at room temperature
Protocol: Compounds of the invention were tested (ELISA test) as inhibitors of human urokinase (uPA) binding to its specific receptor uPAR mAk (BIO-R4), according to the procedure described in Biol. Chem. Hoppe-Seyler, 376, 587-94 (1995) by Rettenberger et al. The assays are performed in Microtiterplates (96 wells). The following solutions are used:
washing buffer PBS-buffer (without Mg^2+ and Ca^2+)+0.05% Tween 20;
incubation buffer (IP): 1% skimmed milk powder in PBS-buffer (without Mg^2+ and Ca^2+);
BIO-R4 solution: 50 ng/well (0.5 (g/ml; 100 (l/well) in IP;
uPAR solution: 3 ng/well (30 ng/ml; 100 (l/well) in PBS-buffer (without Mg^2+ and Ca^2+);
blocking solution: 1% skimmed milk powder in washing buffer (dissolved at 37° C.);
uPA solution: 0.25 ng/well (5 ng/ml; 50 (l/well) in IP.
Detect ion solutions (per microtiterplate):
(1) 6 ml (100 mM Tris-Cl pH 7.2+0.15% Tween 80)+1.5 ml (10 (g) Plasminogen in aqua bidest;
(2) 6 ml (100 mM Tris-Cl pH 7.2+0.15% Tween 80)+1.5 ml (7.5 mg) chromozyme PL in aqua bidest.
The detection solution must be continuously stirred. Testing substances: the testing substances are dissolved in DMSO. They are used in the test system with a highest concentration of 100 (g/ml. The solutions are prepared using PBS.
Three controls are performed:
a) positive control: using 2% DMSO in PBS;
b) negative control: assay without receptor;
1) inhibition (IC95 at 0.25 mg/ml) with dextranesulfate (MW=500.000);
2) inhibition (IC90 at 1 (g/ml) with inactivated uPA (175 (g/ml).
Incubation is done as follows:
Each well is incubated by 100 (1 of BIO-R4 (c=0.5 (g/ml) for 1 hour at room temperature under shaking. After washing three times with the washing buffer, each well is incubated for 1 hour (37° C.) with 200 (l/well blocking solution. After triple washing each well is incubated for 1 hour at room temperature under shaking with 100 (l/well uPAR (c=30 ng/ml), then the wells are washed again three times with the washing buffer. The testing substance solution and the control solution, respectively, are added (50 (l/well) and are incubated for 30 minutes at room temperature under shaking. An additional 50 (l of uPA solution (c=2.5 ng/ml) are added. After 1 hour at room temperature a triple washing is performed.
For detection, the following procedure is used:
Incubation with 50 (l each of detection solution (1) and (2) at room temperature. After 20 minutes a yellow colour will be visible (the positive control reads an extinction of 1 after 45-60 minutes). The detection is performed at 405 nm (reference is 490 nm) using a Dynatech MR 7000 ELISA reader. To obtain the percentage of inhibition the following formula is used (E stands for extinction): [formula]

Chain of uPAR (Q03405 23-305 limits assumed): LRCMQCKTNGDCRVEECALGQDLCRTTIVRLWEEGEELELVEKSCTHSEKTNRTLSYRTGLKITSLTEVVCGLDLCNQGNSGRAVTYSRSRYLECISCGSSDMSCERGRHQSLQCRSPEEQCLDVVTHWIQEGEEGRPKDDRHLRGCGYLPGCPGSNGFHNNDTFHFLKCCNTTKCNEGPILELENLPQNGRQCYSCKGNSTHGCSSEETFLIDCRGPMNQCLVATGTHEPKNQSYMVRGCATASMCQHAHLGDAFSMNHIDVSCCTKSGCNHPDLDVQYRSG

| SMILES | IC50 |
| --- | --- |
| CC(C)=C1Oc2cccc(OCCCCN3CCC(NC(=O)c4ccc(Cl)c(Cl)c4)CC3)c2C1=O [4-(4-(4-(3,4-dichlorobenzamido)piperidin-1-yl)butoxy)-2-isopropylidenecumaran-3-one] | > 19.3 nM |
| CC(C)=C1Oc2cccc(OC/C=C\CN3CCC(NC(=O)c4ccc(Cl)c(Cl)c4)CC3)c2C1=O [(Z)-4-(4-(4-(3,4-dichlorobenzamido)piperidin-1-yl)-2-butenoxy)-2-isopropylidenecumaran-3-one] | > 19.4 nM |

The next lines start with the values.

| IC50 | SMILES |
| --- | --- |
| 91.2 nM | CC(C)=C1Oc2cccc(OCCCN3CCC(NC(=O)c4ccc(Cl)c(S(N)(=O)=O)c4)CC3)c2C1=O [4-(3-(4-(3-aminosulfonyl-4-chlorobenzamido)piperidin-1yl)propoxy)-2-isopropylidenecumaran-3-one] |
| 104 nM | CC(C)=C1Oc2cccc(OCCOCCN3CCC(NC(=O)c4ccc(F)cc4)CC3)c2C1=O [4-[(2-(2-(4-(4-fluorobenzamido)piperidin-1-yl)ethyl)oxy)ethyloxy]-2-isopropylidenecumaran-3-one] |
| > 19.4 nM | CC(C)=C1Oc2cccc(OC/C=C/CN3CCC(NC(=O)c4ccc(Cl)c(Cl)c4)CC3)c2C1=O [(E)-4-(4-(4-(3,4-dichlorobenzamido)piperidin-1-yl)-2-butenoxy)-2-isopropylidenecumaran-3-one] |
